From patent US20120258076A1, “METHOD FOR CHARACTERIZING HOST IMMUNE FUNTION BY EX VIVO INDUCTION OF OFFENSIVE AND DEFENSIVE IMMUNE MARKERS” (HITACHI CHEMICAL RESEARCH CENTER, INC., priority 2009, published 2012)

System: heparinized whole blood
Assay: Drug screening: inhibitor preincubation of whole blood, then PBS or rIL-2 stimulation, mRNA quantification
Assay type: cell-based, human
Excerpt: Beta-actin expression served as a control for the expression assay. Offensive immune markers characterized included tumor necrosis factor superfamily (TNFSF) 1 (lymphotoxin), 2 (TNFα), 5 (CD40L), 6 (FasL), 8 (CD30L), 9 (CD137L), 14 (LIGHT), and 15 (TL1A). Chemokines characterized included CCL2, CCL3, CCL4, CCL8, CCL11, CCL20, CXCL1, CXCL2, CXCL3, CXCL10. Interleukins characterized include IL6, IL8, IL10, IL17, and IL23. Immune effectors characterized include GM-CSF, INFγ, CD16, Granzyme B, CD122, and TGFB-1. Markers of defensive immune function characterized include FoxP3, CTLA4, CD25, and GARP-1. Other offensive or defensive immune markers, as well as other chemokines, interleukins or effectors (among other immune-associated markers) can be tested in certain embodiments.
Shaded boxes represent a fold increase of greater than 2 as well as a statistical p value of <0.05. […] The various inhibitor compounds used to pre-treat the whole blood samples are listing on the x-axis. […] Thus, this compound has a potential to block or reduce the offensive immune response and may function as a pro-immunosuppressant compound. […] Thus, from this set of experiments, it is unclear if this particular Jak inhibitor is well-suited for promoting offensive or defensive immune responses. Further dose-response studies and/or studies with additional immune markers are necessary to elucidate the efficacy of this compound.
Embodiments of the methods described herein are also well suited to the characterization of various derivative or modified compounds, in that a single assay can generate side by side data comparing of a panel of putative derivative compounds. Moreover, based on the distinct features of the data described above, embodiments of the methods described herein are useful to detecting defensive-specific (i.e. pro-offensive) inhibitor compounds for use in clinical situations. Thus, this assay platform is useful for the analysis/screening of common and selective inhibitors for offensive and defensive immune functions.

SMILES	induction of TNFSF1 mRNA in response to rIL-2 in presence of inhibitor (inhibitor 10 mM, 1 hour preincubation, then rIL-2 100 ng/ml 4 hours, FIG. 3A)	induction of CD25 mRNA in response to rIL-2 in presence of inhibitor (inhibitor 10 mM, 1 hour preincubation, then rIL-2 100 ng/ml 4 hours, FIG. 3I)	induction of FoxP3 mRNA in response to rIL-2 in presence of inhibitor (inhibitor 10 mM, 1 hour preincubation, then rIL-2 100 ng/ml 4 hours, FIG. 3J)	induction of IFNγ in response to PBS or rIL-2 in presence of inhibitor (additional experiments, FIG. 4A-4B)	induction of TNFSF-1 in response to PBS or rIL-2 in presence of inhibitor (additional experiments, FIG. 4C-4D)	induction of CD25 in response to PBS or rIL-2 in presence of inhibitor (additional experiments, FIG. 4G-4H)	induction of FoxP3 in response to PBS or rIL-2 in presence of inhibitor (additional experiments, FIG. 4I-4J)
CC(C)(C)c1nc2c3cc[nH]c(=O)c3c3cc(F)ccc3c2[nH]1 [Jak inhibitor]	no induction	blocks induction	blocks induction	–	–	–	–
O=C1Nc2ccccc2/C1=C1/Nc2ccccc2/C1=N\OCC(O)CO (stereo not shown) [E084]	–	–	–	specific inhibition	specific inhibition	induced	induced
